Test results from paper PMC11007702 (ACS Omega, 2024).
pIC50: −log10 of the molar value.

Key:
Assay type in all cases: biochemical
VEGFR-2 = VEGFR-2 (Homo sapiens, UniProt P35968); experiment: in vitro kinase inhibition
EGFR^T790M = EGFR^T790M (Homo sapiens, UniProt P00533, T790M); experiment: in vitro EGFR kinase inhibition assay
EGFR^WT = EGFR^WT (Homo sapiens, UniProt P00533); experiment: in vitro EGFR kinase inhibition assay
Chain of EGFR^WT (P00533 25-1210): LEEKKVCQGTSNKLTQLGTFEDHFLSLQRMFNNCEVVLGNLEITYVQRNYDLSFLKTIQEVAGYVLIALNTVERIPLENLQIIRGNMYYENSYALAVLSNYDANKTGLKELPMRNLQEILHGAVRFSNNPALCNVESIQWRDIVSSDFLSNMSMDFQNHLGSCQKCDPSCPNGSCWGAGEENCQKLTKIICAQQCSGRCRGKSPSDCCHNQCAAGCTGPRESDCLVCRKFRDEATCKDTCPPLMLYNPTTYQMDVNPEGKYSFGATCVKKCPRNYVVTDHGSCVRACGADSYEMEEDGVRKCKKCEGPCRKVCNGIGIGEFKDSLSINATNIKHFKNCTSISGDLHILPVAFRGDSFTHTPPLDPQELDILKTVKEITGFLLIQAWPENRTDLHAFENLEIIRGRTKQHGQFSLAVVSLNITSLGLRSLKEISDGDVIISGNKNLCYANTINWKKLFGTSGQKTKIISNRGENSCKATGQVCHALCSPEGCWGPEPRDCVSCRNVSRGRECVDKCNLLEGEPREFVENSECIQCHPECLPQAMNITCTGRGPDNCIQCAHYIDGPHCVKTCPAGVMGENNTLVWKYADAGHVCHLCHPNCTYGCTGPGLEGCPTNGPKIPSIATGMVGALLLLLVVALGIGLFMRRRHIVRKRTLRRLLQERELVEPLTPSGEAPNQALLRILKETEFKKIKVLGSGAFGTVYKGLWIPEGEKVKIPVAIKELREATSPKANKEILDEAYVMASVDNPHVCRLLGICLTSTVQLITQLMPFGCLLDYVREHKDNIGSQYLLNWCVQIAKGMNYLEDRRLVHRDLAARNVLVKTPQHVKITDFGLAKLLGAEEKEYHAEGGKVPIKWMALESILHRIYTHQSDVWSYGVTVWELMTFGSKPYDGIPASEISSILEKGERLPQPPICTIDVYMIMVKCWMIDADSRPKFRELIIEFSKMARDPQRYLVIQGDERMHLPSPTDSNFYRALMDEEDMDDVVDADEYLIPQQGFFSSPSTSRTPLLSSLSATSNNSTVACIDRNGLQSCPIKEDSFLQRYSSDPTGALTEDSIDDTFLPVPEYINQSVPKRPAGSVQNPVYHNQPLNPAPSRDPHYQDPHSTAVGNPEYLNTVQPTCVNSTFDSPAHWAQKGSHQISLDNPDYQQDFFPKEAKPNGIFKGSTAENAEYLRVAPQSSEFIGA

Chain of EGFR^T790M (P00533 669-1210 T790M limits assumed): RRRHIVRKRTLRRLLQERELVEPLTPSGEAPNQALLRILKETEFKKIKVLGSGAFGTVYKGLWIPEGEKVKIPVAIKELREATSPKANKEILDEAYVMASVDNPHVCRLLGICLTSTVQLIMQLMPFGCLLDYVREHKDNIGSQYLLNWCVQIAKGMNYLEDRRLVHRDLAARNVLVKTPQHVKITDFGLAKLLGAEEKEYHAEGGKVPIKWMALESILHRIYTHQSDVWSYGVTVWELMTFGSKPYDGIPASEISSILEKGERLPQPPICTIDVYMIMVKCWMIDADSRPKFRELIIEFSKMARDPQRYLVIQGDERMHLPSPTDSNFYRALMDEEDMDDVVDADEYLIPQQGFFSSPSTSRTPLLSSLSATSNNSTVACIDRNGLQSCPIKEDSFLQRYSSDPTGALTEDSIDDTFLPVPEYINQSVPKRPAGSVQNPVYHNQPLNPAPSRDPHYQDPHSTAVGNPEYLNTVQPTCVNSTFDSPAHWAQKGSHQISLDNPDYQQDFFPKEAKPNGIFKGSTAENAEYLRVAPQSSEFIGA
Chain of VEGFR-2 (P35968 20-1356): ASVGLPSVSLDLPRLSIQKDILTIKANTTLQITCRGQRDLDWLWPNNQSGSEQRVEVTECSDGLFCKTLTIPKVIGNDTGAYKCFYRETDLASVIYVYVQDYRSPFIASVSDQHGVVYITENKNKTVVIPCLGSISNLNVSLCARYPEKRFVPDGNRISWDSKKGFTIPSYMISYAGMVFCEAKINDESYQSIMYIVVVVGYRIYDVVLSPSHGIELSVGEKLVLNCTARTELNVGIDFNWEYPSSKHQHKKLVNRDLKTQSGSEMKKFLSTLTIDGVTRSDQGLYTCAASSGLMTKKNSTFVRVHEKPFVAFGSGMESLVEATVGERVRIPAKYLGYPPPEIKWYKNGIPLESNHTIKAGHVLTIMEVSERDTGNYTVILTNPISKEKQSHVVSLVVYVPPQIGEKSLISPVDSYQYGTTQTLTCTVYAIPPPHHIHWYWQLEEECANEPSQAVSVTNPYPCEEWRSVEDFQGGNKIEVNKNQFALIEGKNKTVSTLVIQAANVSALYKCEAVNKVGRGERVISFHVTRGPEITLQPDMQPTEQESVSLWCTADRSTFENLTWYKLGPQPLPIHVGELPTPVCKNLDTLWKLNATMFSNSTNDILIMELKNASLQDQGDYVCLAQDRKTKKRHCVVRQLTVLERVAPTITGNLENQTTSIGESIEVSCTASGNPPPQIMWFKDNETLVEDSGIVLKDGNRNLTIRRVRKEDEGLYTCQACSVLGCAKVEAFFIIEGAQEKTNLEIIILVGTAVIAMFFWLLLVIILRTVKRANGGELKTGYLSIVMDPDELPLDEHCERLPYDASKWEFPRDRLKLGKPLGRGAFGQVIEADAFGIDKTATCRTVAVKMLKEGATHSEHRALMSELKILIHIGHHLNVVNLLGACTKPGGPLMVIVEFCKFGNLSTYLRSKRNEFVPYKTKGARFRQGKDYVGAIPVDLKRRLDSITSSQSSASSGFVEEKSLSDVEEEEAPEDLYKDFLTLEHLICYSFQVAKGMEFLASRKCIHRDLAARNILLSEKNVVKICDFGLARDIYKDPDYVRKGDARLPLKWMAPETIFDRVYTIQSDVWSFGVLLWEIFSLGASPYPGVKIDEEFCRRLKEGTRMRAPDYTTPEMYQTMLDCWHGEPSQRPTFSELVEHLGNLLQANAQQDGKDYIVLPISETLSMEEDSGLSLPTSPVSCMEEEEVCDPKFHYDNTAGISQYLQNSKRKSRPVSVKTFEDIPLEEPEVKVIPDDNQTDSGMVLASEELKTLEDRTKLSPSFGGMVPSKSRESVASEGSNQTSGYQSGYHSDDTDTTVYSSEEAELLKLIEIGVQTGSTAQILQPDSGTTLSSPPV

- pIC50 (VEGFR-2): 5.68
- pIC50 (EGFR^T790M): 6.25
- pIC50 (EGFR^WT): 7.07
Compound: Cc1ccc(NC(=O)Cn2c(=O)c3c(ncn3C)n(C)c2=O)cc1 [T-1-PMPA, 2-(3,7-Dimethyl-2,6-dioxo-2,3,6,7-tetrahydro-1H-purin-1-yl)-N-(p-tolyl)acetamide]
